For assay [1], the system named is two slug GPCRs (receptor A and B) expressed in the Sf9 insect cell line. The assay can be described thus: Binding assay with peptides: calcium fluorescence (FLIPR Calcium 6) in Sf9 cells expressing slug GPCRs. It counts as cell-based, Deroceras reticulatum. The conditions noted are these: for EC50: Sf9 cells expressing receptor A or receptor B, receptor not given; for binding activity / activation of the receptors: alanine-substituted or N-terminally reduced peptides of SEQ ID NO: 3, FIG. 5. From the text: The open reading frames (ORFs) of D. reticulatum GPCRs were inserted into a pIB/V5-His TOPO® TA expression vector (Thermo Fisher Scientific) to be expressed in Sf9 cells as described previously (Choi et al., Gen. Comp. Endocrinol., (2017) 246:354-62). To add a Kozak sequence (G/ANNATGG) in the translation initiation the ORFs of D. reticulatum GPCRs were amplified using specific primer sets. The sequences of two different ORFs of D. reticulatum GPCRs were confirmed after insertion into the expression vector.
Small synthetic peptides derived from the PRXamide family members identified from the gray garden slug and insects (Table 1), were tested to determine their binding activities to two slug GPCRs (receptor A and B) expressed in the Sf9 insect cell line. All peptide ligands of SEQ ID NOs: 1-16 and 19-28, as well as the “RY” dipeptide and “PRY” tripeptide (purity >95%) were synthesized from Peptide 2.0 (Chantily, VA, USA). Sf9 cells were cultured as described previously (Choi et al., supra). About 50,000 cells per well in a 96-well plate (Corning C3603) were incubated at 28° C. overnight. At 48 h, cells were rinsed with 100 μL of fresh medium without fetal bovine serum (FBS). Then, cells were incubated in 95 μL of 1×FLIPR Calcium 6 reagent (Molecular Devices, San Jose, CA, USA) containing 2.5 mM probenecid at room temperature in the dark for 1 h. The reagent-loaded cells were transferred to the Flexstation 3 multimode microplate reader (Molecular Devices) equipped with filters (excitation: 485 nm and emission: 520 nm) and an 8-channel pipettor. Fluorescence measurements from each well on the column were taken every 5 s for 4 min. After 30 s the peptide ligand (10 μL) was added with the pipettor and fluorescent intensity was measured for up to 3 min. Then, 5 μL of 1 μM ionomycin (Thermo Fisher Scientific) was added to the cells to obtain a maximum fluorescence reading. Baseline fluorescence was determined by averaging 5 time points from each well prior to treatment with ligand and the resulting response was expressed as a percent increase in fluorescence relative to baseline value. Cells were tested only once with a ligand then discarded. Data were analyzed using Microsoft Excel as described previously, and half-maximal effective concentration (EC50) values of ligands were determined using GraphPad Prism 6 (GraphPad Software, Inc., San Diego, CA).
The binding affinity to the two receptors of these two peptides, QPPLPRY-NH2 (SEQ ID NO: 3) and QPPVPRY-NH2 (SEQ ID NO: 4), was measured based on specific fluorescent intensity of the Sf9 cells expressing receptor A or receptor B in a 96-well plate. A strong fluorescent signal indicated strong binding activity between the peptide ligand and receptor.
To test the effect of varying individual amino acid residues and varying the length of the peptide of SEQ ID NO: 3, different amino acid residues were replaced with alanine (A), or the overall length of the peptide was reduced by sequentially removing amino acid residues from the N-terminal end of SEQ ID NO: 3 (Table 1, SEQ ID NO: 19, SEQ ID NO: 20, SEQ ID NO: 21, SEQ ID NO: 22, SEQ ID NO: 23, SEQ ID NO: 24, SEQ ID NO: 25, SEQ ID NO: 26, SEQ ID NO: 27, SEQ ID NO: 28). Altered peptides were tested and measured for binding activity with the receptors using the same methods as described above.

Assay [2] has as its system gray garden slugs. Nature of the assay: Body weight loss and phenotype after peptide injection into slugs. It counts as in vivo, Deroceras reticulatum. To be noted: for body weight loss relative to water control: 10 nmol injected, after 72 h. The protocol: The gray garden slugs utilized herein (Deroceras reticulatum) were collected in Corvallis, Oregon, USA, and maintained with carrot and lettuce in a controlled incubator (13° C., 90% RH, 14: 10=light:dark, dim light). To test their effects on slugs, peptides of SEQ ID NO: 3 and SEQ ID NO: 4 were dissolved in 5 μl of purified water (10 nmol) and injected into four gray garden slugs per each treatment. Over 80% of the slug body weight was lost after 72 h when either peptide was injected into the slugs, almost 2-fold higher than the water control (FIG. 3).

Assay [3] concerns gray garden slugs. The assay can be described thus: Mortality after peptide injection into slugs. It counts as in vivo, Deroceras reticulatum. The conditions noted are these: 100 nmol injected. The protocol: The gray garden slugs utilized herein (Deroceras reticulatum) were collected in Corvallis, Oregon, USA, and maintained with carrot and lettuce in a controlled incubator (13° C., 90% RH, 14: 10=light:dark, dim light). To test their effects on slugs, 100 nmol of each of the peptides (SEQ ID NO: 1, SEQ ID NO: 3, SEQ ID NO: 19, SEQ ID NO: 25 and SEQ ID NO: 26) was dissolved in 5 μL of purified water (100 nmol) and injected into 10 gray garden slugs per each treatment. Under dry conditions, after 24 h the slug mortalities observed were 40% with SEQ ID NO: 1, 70% with SEQ ID NO: 3, 90% with SEQ ID NO: 19, 70% with SEQ ID NO: 25, and 70% with SEQ ID NO: 26. […] Under wet conditions, the slug mortalities observed within 24 h were 40% with SEQ ID NO: 19, 40% with SEQ ID NO: 25, and 30% with SEQ ID NO: 26.

Assay [4] concerns gray garden slugs. The assay can be described thus: Anti-feeding on peptide-treated lettuce leaf. It counts as in vivo, Deroceras reticulatum. The conditions noted are these: lettuce treated with 200 nmol peptide. The procedure:
The gray garden slugs utilized herein (Deroceras reticulatum) were collected in Corvallis, Oregon, USA, and maintained with carrot and lettuce in a controlled incubator (13° C., 90% RH, 14: 10=light:dark, dim light). To test for the effect of the peptides on feeding, slugs were fed a diet of lettuce leaf tissues treated with water alone or with 200 nmol of individual peptides (SEQ ID NO: 19, SEQ ID NO: 25, and SEQ ID NO: 26) dissolved in 10 μL water (FIG. 8). Ten gray garden slugs were used for each treatment and each treatment was replicated three times.

Setting [5] is: dry conditions (Petri dish), after 24 h.
[6] abbreviates: wet conditions (Petri dish with wet paper towel), within 24 h.

Usually EC50 stands for the midpoint of the concentration-response curve. Turning to “QPPLPRY [SEQ ID NO: 3, synthetic peptide, source D. reticulatum]”, the EC50 in assay [1] was 1.4 nM. Moreover, the “body weight loss relative to water control” value in the assay on gray garden slugs [2] was roughly 2 fold. Also, in the assay on gray garden slugs [2] (injected peptide, FIG. 4), the “phenotypic effects after injection” value was “excreted large volumes of milky mucus within 1 minute, exhibited body paralysis, extruding tentacles, weight loss and dehydration”. Moreover, the slug mortality is 70% in the assay on gray garden slugs [3] (setting [5]) and “No mortalities were observed” in the assay with gray garden slugs [3] (setting [6]).

With QPPLPRA [SEQ ID NO: 25], the anti-feeding in the assay on gray garden slugs [4] (within 1 h) was 66.7%; with gray garden slugs [4] (within 2 h), 46.7%; in the assay with gray garden slugs [4] (within 6 h) it was 16.7%. Besides, the slug mortality in the assay on gray garden slugs [3] (setting [5]) came to 70%; with gray garden slugs [3] (setting [6]), 40%.

For APPLPRY [SEQ ID NO: 19], the “binding activity / activation of the receptors” value (from here on “binding activity / activation”) in assay [1] was “maintained binding activity and activated the receptors”. Moreover, the anti-feeding in the assay on gray garden slugs [4] (within 1 h) was determined as 93.3%; with gray garden slugs [4] (within 2 h), 91.3%; in the assay on gray garden slugs [4] (within 6 h), 80.7%. Also, the slug mortality was determined as 90% with gray garden slugs [3] (setting [5]) and 40% in the assay on gray garden slugs [3] (setting [6]).

For “QPPVPRY [SEQ ID NO: 4, synthetic peptide, source D. reticulatum]”, the EC50 in assay [1] worked out at 12.7 nM. The “body weight loss relative to water control” value in the assay with gray garden slugs [2] was roughly 2 fold.

Consider QPPAPRY [SEQ ID NO: 22], for which, in assay [1], the “binding activity / activation” value is “maintained binding activity and activated the receptors”.

As to QPALPRY [SEQ ID NO: 21], the “binding activity / activation” value in assay [1] is “maintained binding activity and activated the receptors”.

Turning to LPRY [SEQ ID NO: 26], the “binding activity / activation” value in assay [1] is recorded as “retained the ability to activate the receptors”. Further, the anti-feeding with gray garden slugs [4] (within 1 h) is on record as 73.3%; with gray garden slugs [4] (within 2 h), 48.0%; in the assay with gray garden slugs [4] (within 6 h), 23.3%. In addition, the figures for the slug mortality in the assay on gray garden slugs [3] (setting [5]) and with gray garden slugs [3] (setting [6]) were 70% and 30%, respectively.

Turning to PPLPRY [SEQ ID NO: 27], the “binding activity / activation” value in assay [1] was “retained the ability to activate the receptors”.

As for PLPRY [SEQ ID NO: 28], the “binding activity / activation” value in assay [1] is recorded as “retained the ability to activate the receptors”.

For QAPLPRY [SEQ ID NO: 20], the “binding activity / activation” value in assay [1] was “maintained binding activity and activated the receptors”.

In the assay on gray garden slugs [3] (setting [5]), “PMSMLRL [SEQ ID NO: 1, synthetic peptide, source D. reticulatum]” had a slug mortality of 40%.

For the origin of these results see patent US12557817B2, “Bioactive peptides having detrimental effects on pest slugs” (priority 2019, dated 2026).
